# Data taken from ChEMBL document CHEMBL2380302, “Synthesis of 3-O-propargylated betulinic acid and its 1,2,3-triazoles as potential apoptotic agents” (Eur J Med Chem, 2013).
# Experiments:
# HEp-2 [1] = experiment: Cytotoxicity against human Hep2 cells at 10 uM after 48 hrs by SRB assay; assay type: functional; conditions: HEp-2, 48 h, read-out: GI
# DU-145 [2] = experiment: Cytotoxicity against human DU145 cells at 30 uM after 48 hrs by SRB assay; assay type: functional; conditions: DU-145, 48 h, read-out: GI
# HEp-2 [3] = experiment: Cytotoxicity against human Hep2 cells at 50 uM after 48 hrs by SRB assay; assay type: functional; conditions: HEp-2, 48 h, read-out: GI
# HEp-2 [4] = experiment: Cytotoxicity against human Hep2 cells at 30 uM after 48 hrs by SRB assay; assay type: functional; conditions: HEp-2, 48 h, read-out: GI
# HL-60 [5] = experiment: Cytotoxicity against human HL60 cells at 30 uM after 48 hrs by SRB assay; assay type: functional; conditions: HL-60, 48 h, read-out: GI
# SF-295 [6] = experiment: Cytotoxicity against human SF295 cells at 30 uM after 48 hrs by SRB assay; assay type: functional; conditions: SF-295, 48 h, read-out: GI
# SF-295 [7] = experiment: Cytotoxicity against human SF295 cells at 50 uM after 48 hrs by SRB assay; assay type: functional; conditions: SF-295, 48 h, read-out: GI
# THP-1 [8] = experiment: Cytotoxicity against human THP1 cells at 50 uM after 48 hrs by SRB assay; assay type: functional; conditions: THP-1, 48 h, read-out: GI
# A549 [9] = experiment: Cytotoxicity against human A549 cells at 30 uM after 48 hrs by SRB assay; assay type: functional; conditions: A549, 48 h, read-out: GI
# HL-60 [10] = experiment: Cytotoxicity against human HL60 cells at 10 uM after 48 hrs by SRB assay; assay type: functional; conditions: HL-60, 48 h, read-out: GI
# A549 [11] = experiment: Cytotoxicity against human A549 cells at 10 uM after 48 hrs by SRB assay; assay type: functional; conditions: A549, 48 h, read-out: GI
# THP-1 [12] = experiment: Cytotoxicity against human THP1 cells at 10 uM after 48 hrs by SRB assay; assay type: functional; conditions: THP-1, 48 h, read-out: GI
# PC-3 [13] = experiment: Cytotoxicity against human PC3 cells at 30 uM after 48 hrs by SRB assay; assay type: functional; conditions: PC-3, 48 h, read-out: GI
# A549 [14] = experiment: Cytotoxicity against human A549 cells after 48 hrs by SRB assay; assay type: functional, cell-based; conditions: A549, 48 h
# MCF7 [15] = experiment: Cytotoxicity against human MCF7 cells at 10 uM after 48 hrs by SRB assay; assay type: functional; conditions: MCF7, 48 h, read-out: GI
# THP-1 [16] = experiment: Cytotoxicity against human THP1 cells at 30 uM after 48 hrs by SRB assay; assay type: functional; conditions: THP-1, 48 h, read-out: GI
# A549 [17] = experiment: Cytotoxicity against human A549 cells at 50 uM after 48 hrs by SRB assay; assay type: functional; conditions: A549, 48 h, read-out: GI
# DU-145 [18] = experiment: Cytotoxicity against human DU145 cells at 50 uM after 48 hrs by SRB assay; assay type: functional; conditions: DU-145, 48 h, read-out: GI
# MCF7 [19] = experiment: Cytotoxicity against human MCF7 cells at 30 uM after 48 hrs by SRB assay; assay type: functional; conditions: MCF7, 48 h, read-out: GI
# PC-3 [20] = experiment: Cytotoxicity against human PC3 cells after 48 hrs by SRB assay; assay type: functional, cell-based; conditions: PC-3, 48 h
# DU-145 [21] = experiment: Cytotoxicity against human DU145 cells at 10 uM after 48 hrs by SRB assay; assay type: functional; conditions: DU-145, 48 h, read-out: GI
# HEp-2 [22] = experiment: Cytotoxicity against human Hep2 cells after 48 hrs by SRB assay; assay type: functional, cell-based; conditions: HEp-2, 48 h
# HL-60 [23] = experiment: Cytotoxicity against human HL60 cells after 48 hrs by SRB assay; assay type: functional, cell-based; conditions: HL-60, 48 h
# MCF7 [24] = experiment: Cytotoxicity against human MCF7 cells after 48 hrs by SRB assay; assay type: functional, cell-based; conditions: MCF7, 48 h
# DU-145 [25] = experiment: Cytotoxicity against human DU145 cells after 48 hrs by SRB assay; assay type: functional, cell-based; conditions: DU-145, 48 h
# SF-295 [26] = experiment: Cytotoxicity against human SF295 cells at 10 uM after 48 hrs by SRB assay; assay type: functional; conditions: SF-295, 48 h, read-out: GI
# HL-60 [27] = experiment: Cytotoxicity against human HL60 cells at 50 uM after 48 hrs by SRB assay; assay type: functional; conditions: HL-60, 48 h, read-out: GI
# HCT-15 [28] = experiment: Cytotoxicity against human HCT15 cells after 48 hrs by SRB assay; assay type: functional, cell-based; conditions: HCT-15, 48 h
# THP-1 [29] = experiment: Cytotoxicity against human THP1 cells after 48 hrs by SRB assay; assay type: functional, cell-based; conditions: THP-1, 48 h
# HCT-15 [30] = experiment: Cytotoxicity against human HCT15 cells at 50 uM after 48 hrs by SRB assay; assay type: functional; conditions: HCT-15, 48 h, read-out: GI
# MCF7 [31] = experiment: Cytotoxicity against human MCF7 cells at 50 uM after 48 hrs by SRB assay; assay type: functional; conditions: MCF7, 48 h, read-out: GI
# SF-295 [32] = experiment: Cytotoxicity against human SF295 cells after 48 hrs by SRB assay; assay type: functional, cell-based; conditions: SF-295, 48 h
# HCT-15 [33] = experiment: Cytotoxicity against human HCT15 cells at 30 uM after 48 hrs by SRB assay; assay type: functional; conditions: HCT-15, 48 h, read-out: GI
# PC-3 [34] = experiment: Cytotoxicity against human PC3 cells at 10 uM after 48 hrs by SRB assay; assay type: functional; conditions: PC-3, 48 h, read-out: GI
# PC-3 [35] = experiment: Cytotoxicity against human PC3 cells at 50 uM after 48 hrs by SRB assay; assay type: functional; conditions: PC-3, 48 h, read-out: GI
# HCT-15 [36] = experiment: Cytotoxicity against human HCT15 cells at 10 uM after 48 hrs by SRB assay; assay type: functional; conditions: HCT-15, 48 h, read-out: GI
SMILES,inhibition of growth at 10 µM (HEp-2 [1]) [%],inhibition of growth at 30 µM (DU-145 [2]) [%],inhibition of growth at 50 µM (HEp-2 [3]) [%],inhibition of growth at 30 µM (HEp-2 [4]) [%],inhibition of growth at 30 µM (HL-60 [5]) [%],inhibition of growth at 30 µM (SF-295 [6]) [%],inhibition of growth at 50 µM (SF-295 [7]) [%],inhibition of growth at 50 µM (THP-1 [8]) [%],inhibition of growth at 30 µM (A549 [9]) [%],inhibition of growth at 10 µM (HL-60 [10]) [%],inhibition of growth at 10 µM (A549 [11]) [%],inhibition of growth at 10 µM (THP-1 [12]) [%],inhibition of growth at 30 µM (PC-3 [13]) [%],IC50 (A549 [14]) [µM],inhibition of growth at 10 µM (MCF7 [15]) [%],inhibition of growth at 30 µM (THP-1 [16]) [%],inhibition of growth at 50 µM (A549 [17]) [%],inhibition of growth at 50 µM (DU-145 [18]) [%],inhibition of growth at 30 µM (MCF7 [19]) [%],IC50 (PC-3 [20]) [µM],further results
C=C(C)[C@@H]1CC[C@]2(C(=O)O)CC[C@]3(C)[C@H](CC[C@@H]4[C@@]5(C)CC[C@H](OCc6cn(-c7ccc(C(=O)c8ccccc8)cc7)nn6)C(C)(C)[C@@H]5CC[C@]43C)[C@@H]12,25,9,25,26,30,19,12,91,37,6,32,3,4,36,29,24,58,50,25,> 50,inhibition of growth at 10 µM (DU-145 [21]): 6%; IC50 (HEp-2 [22]): > 50 µM; IC50 (HL-60 [23]): 40 µM; IC50 (MCF7 [24]): > 50 µM; IC50 (DU-145 [25]): 50 µM; inhibition of growth at 10 µM (SF-295 [26]): 8%; inhibition of growth at 50 µM (HL-60 [27]): 94%; IC50 (HCT-15 [28]): > 50 µM; IC50 (THP-1 [29]): 44 µM; inhibition of growth at 50 µM (HCT-15 [30]): 46%; inhibition of growth at 50 µM (MCF7 [31]): 44%; IC50 (SF-295 [32]): > 50 µM; inhibition of growth at 30 µM (HCT-15 [33]): 41%; inhibition of growth at 10 µM (PC-3 [34]): 6%; inhibition of growth at 50 µM (PC-3 [35]): 3%; inhibition of growth at 10 µM (HCT-15 [36]): 43%
C=C(C)[C@@H]1CC[C@]2(C(=O)O)CC[C@]3(C)[C@H](CC[C@@H]4[C@@]5(C)CC[C@H](OCc6cn(C7O[C@H](COC(C)=O)[C@@H](OC(C)=O)[C@H](OC(C)=O)[C@H]7OC(C)=O)nn6)C(C)(C)[C@@H]5CC[C@]43C)[C@@H]12 (some centres not stated),24,4,44,39,63,5,5,76,20,52,5,44,7,> 50,8,58,43,8,15,> 50,inhibition of growth at 10 µM (DU-145 [21]): 7%; IC50 (HEp-2 [22]): > 50 µM; IC50 (HL-60 [23]): 8 µM; IC50 (MCF7 [24]): > 50 µM; IC50 (DU-145 [25]): > 50 µM; inhibition of growth at 10 µM (SF-295 [26]): 8%; inhibition of growth at 50 µM (HL-60 [27]): 80%; IC50 (HCT-15 [28]): 27 µM; IC50 (THP-1 [29]): 20 µM; inhibition of growth at 50 µM (HCT-15 [30]): 62%; inhibition of growth at 50 µM (MCF7 [31]): 32%; IC50 (SF-295 [32]): > 50 µM; inhibition of growth at 30 µM (HCT-15 [33]): 54%; inhibition of growth at 10 µM (PC-3 [34]): 8%; inhibition of growth at 50 µM (PC-3 [35]): 11%; inhibition of growth at 10 µM (HCT-15 [36]): 39%
